Here are results for one molecule from publication PMC10427391, “Identification of Cytochrome P450 2E1 as a Novel Target in Glioma and Development of Its Inhibitor as an Anti‐Tumor Agent” (Advanced Science, 2023).

pIC50: −log10 of the molar value.

By pIC50 is commonly meant the negative decadic logarithm of the IC50, by convention in mol/L. One may read the Tmax as the time at which the peak concentration occurs.

The target of data set [1] is T1, CYP2A6 (Homo sapiens, UniProt P11509).
T1 construct: A 100 µL microsomal incubation system; from tissue
T1 sequence (P11509 1-494): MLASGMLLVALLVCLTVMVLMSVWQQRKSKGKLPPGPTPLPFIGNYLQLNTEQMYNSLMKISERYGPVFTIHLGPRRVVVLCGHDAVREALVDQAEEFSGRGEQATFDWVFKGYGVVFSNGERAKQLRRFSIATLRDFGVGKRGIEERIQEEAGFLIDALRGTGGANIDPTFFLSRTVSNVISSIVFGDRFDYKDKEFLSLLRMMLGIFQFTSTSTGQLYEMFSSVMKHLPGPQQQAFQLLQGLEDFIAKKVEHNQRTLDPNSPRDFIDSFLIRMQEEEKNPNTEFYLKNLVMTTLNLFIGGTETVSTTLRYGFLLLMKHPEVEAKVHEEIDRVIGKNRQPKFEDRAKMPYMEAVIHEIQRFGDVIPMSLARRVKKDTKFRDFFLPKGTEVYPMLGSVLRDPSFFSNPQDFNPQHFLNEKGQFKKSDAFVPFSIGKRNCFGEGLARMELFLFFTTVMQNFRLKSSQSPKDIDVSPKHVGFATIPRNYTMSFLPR
Kind of data set: Selectivity, microsomal incubation, CYP2A6 (coumarin as substrate). In kind it is biochemical. The procedure: (§1) A 100 µL microsomal incubation system^[ [44] ^] contained probe drugs for each CYP with different series of concentrations, Q11, phosphate buffer, EDTA, magnesium chloride, and substrates (phenacetin for CYP1A2, coumarin for CYP2A6, bupropion for CYP2B6, paclitaxel for CYP2C8, tolbutamide for CYP2C9, omeprazole for CYP2C19, dextromethorphan for CYP2D6, chlorzoxazone for CYP2E1, midazolam for CYP3A4/5). HPLC‐UV and HPLC‐FLD were used to measure the number of metabolites.

Data set [2] concerns other CYP enzymes (CYP1A2, CYP2B6, CYP2C8, CYP2C9, CYP2C19, CYP2D6, CYP3A4/5). Put plainly: Selectivity, microsomal incubation, remaining CYPs. It counts as biochemical. The settings on record: probe substrates. The protocol: as §1
For data set [3], the system named is C6. Put plainly: Direct effect on glioma cells (CCK-8), C6. The settings on record: concentrations below 100 µM.
For data set [4], the system named is GL261 cells. Kind of data set: Direct effect on glioma cells (CCK-8), GL261. The settings on record: concentrations below 100 µM.
In data set [5] the test system is microglia/macrophage of tumor microenvironment. Kind of data set: Immunohistochemistry of CD206 and CD86 on tumor tissues. The settings on record: Q11 group vs model.
Description: Paraffin‐embedded specimens were cut into 4‐µm sections. After deparaffinization with xylene and rehydration, antigen retrieval was performed. For immunohistochemistry (IHC), endogenous peroxidase activity was blocked with 3% H2O2 in methanol. Primary antibodies against CYP2E1 (1:200, Abcam, ab28146), Iba‐1 (1:150, Servicebio, China), CD206 (1:150, Servicebio), and CD86 (1:150, Servicebio) were used and results were evaluated blindly by two pathologists and quantified by IPP 6.0 soft.
The test system of data set [6] is glioma induced by C6 cells. Kind of data set: Intracranial orthotopic glioma model induced by C6 cells. The settings on record: SD rat, oral 30 mg kg^−1.
Data set [7] relates to GBM. Kind of data set: Intracranial glioma models overall (rats, mice, nude mice).
In data set [8] the test system is glioma induced by U251‐LUC cells. Kind of data set: Intracranial orthotopic glioma model induced by U251-LUC cells.
Data set [9] relates to GL261 cells. Kind of data set: Migration (wound assay) of GL261 cells in co-culture with microglia/macrophages. The settings on record: 24 h.
In data set [10] the test system is inflammatory factors in TME. Put plainly: Inflammatory factors in the tumor microenvironment of C6 orthotopic xenograft model. The settings on record: C6 model rats.
Data set [11] in a line: In vivo biodistribution / BBB permeability of Q11 (plasma, cortex, hippocampus, HPLC).
The mark [12] stands for this setting: endpoint day 36 after transplantation.

With `CC(=O)c1scnc1C` [Compound Q11, 1‐(4‐methyl‐5‐thialzolyl) ethanone], in data set [1], the pIC50 was 4.12. The “inhibition of other CYP enzymes” value in data set [2] was “no inhibition”. For the same molecule, the “direct killing of C6 cells” value in data set [3] is given as “did not directly kill”. Further, the “direct killing of GL261 cells” value in [4] is listed as “did not directly kill”. For the same molecule, in [5], the “CD86 (M1 marker) positive cells” value was “increased significantly” and the “number of CD206 (M2 marker) positive cells” value is reported as “significantly reduced”. Also, the “growth of tumor (brain weight, tumor diameter, tumor weight)” value in data set [6] is “significantly suppressed”. Also, the tumor-induced weight loss result in data set [7] (intracranial xenografts) is “obviously improved”. Also, in data set [7] (orthotopic glioma models), the “inhibitory effect on glioma growth compared with TMZ” value is given as “superior to that of TMZ”. Further, in data set [8] (day 14 after transplantation, Q11 at 10 and 30 mg kg^−1), the “bioluminescence in tumor sites” value was “lesser bioluminescence”. In data set [8] (setting [12]), the brain weight result is “markedly suppressed”, the tumor diameter entry is “markedly suppressed” and the tumor volume result is given as “markedly suppressed”. Further, the “migration of GL261 cells” value in data set [9] is reported as “restrained migration”. In data set [10], the “M1-like inflammatory factors (IL-1β, TNF-α)” value is recorded as “increased” and the “M2-like inflammatory factors (IL-4, TGF-β, IL-10, VEGFB, IL-6)” value is reported as “significantly decreased”. For the same molecule, the “plasma concentration at peak” value in [11] (SD rats, 30 mg kg^−1 intragastric, about 1 h) was 14.75 ng/mL. Besides, in data set [11] (SD rats, 30 mg kg^−1 intragastric, cortex and hippocampus parallel to plasma), the “blood brain barrier (BBB) permeability” value is reported as “capable of penetrating BBB”. In addition, in [11] (female, SD, rat, in vivo, po, 30 mg/kg), the Tmax is roughly 1 h. Further, the concentration at 4 h in data set [11] (female, SD, rat, plasma, oral, 30 mg kg^−1) worked out at 9.21 ng/mL.
